These results are taken from BindingDB's records for doi:10.1016/j.bmcl.2013.02.084 (Astrazeneca, 2013).

Assay [1] deals with 2-acylglycerol O-acyltransferase 1 (human) (UniProt Q96PD6). Kind of assay: Inhibition of human recombinant MGAT1 expressed in insect cell membrane using 2-oleyl-sn-glycerol and [14C]-oleyl-coenzyme A as substrate after 10 to 15 mins by liquid scintillation counting analysis.
For assay [2], the target named is 2-acylglycerol O-acyltransferase 2 (human) (UniProt Q3SYC2). Briefly: Inhibition of human recombinant MGAT2 expressed in insect cell membrane using 2-oleoyl-sn-glycerol and oleoyl coenzyme A as substrate after 40 mins by Ellmans assay based rapidfire LCMS analysis. (Ellman's reagent forms a yellow product with free thiols.)
Assay [3] deals with 2-acylglycerol O-acyltransferase 2 (mouse). Briefly: Inhibition of mouse recombinant MGAT2 expressed in insect cell membrane using 2-oleoyl-sn-glycerol and oleoyl coenzyme A as substrate after 40 mins by Ellmans assay based rapidfire LCMS analysis.
A short description of assay [4]: Inhibition of human recombinant MGAT3 expressed in insect cell membrane using 2-oleyl-sn-glycerol and [14C]-oleyl-coenzyme A as substrate after 10 to 15 mins by liquid scintillation counting analysis.

2-acylglycerol O-acyltransferase 2 (human), sequence (Q3SYC2 whole entry, looked up): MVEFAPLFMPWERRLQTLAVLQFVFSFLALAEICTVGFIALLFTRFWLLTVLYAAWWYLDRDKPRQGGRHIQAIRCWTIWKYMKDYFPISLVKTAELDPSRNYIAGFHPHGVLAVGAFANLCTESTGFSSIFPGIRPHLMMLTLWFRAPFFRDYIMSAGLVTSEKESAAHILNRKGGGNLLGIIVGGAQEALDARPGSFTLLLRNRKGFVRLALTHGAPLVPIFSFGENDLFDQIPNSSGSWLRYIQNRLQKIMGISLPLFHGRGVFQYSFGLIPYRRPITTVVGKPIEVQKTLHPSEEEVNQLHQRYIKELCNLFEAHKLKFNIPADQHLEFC
2-acylglycerol O-acyltransferase 1 (human), sequence (Q96PD6 whole entry, looked up): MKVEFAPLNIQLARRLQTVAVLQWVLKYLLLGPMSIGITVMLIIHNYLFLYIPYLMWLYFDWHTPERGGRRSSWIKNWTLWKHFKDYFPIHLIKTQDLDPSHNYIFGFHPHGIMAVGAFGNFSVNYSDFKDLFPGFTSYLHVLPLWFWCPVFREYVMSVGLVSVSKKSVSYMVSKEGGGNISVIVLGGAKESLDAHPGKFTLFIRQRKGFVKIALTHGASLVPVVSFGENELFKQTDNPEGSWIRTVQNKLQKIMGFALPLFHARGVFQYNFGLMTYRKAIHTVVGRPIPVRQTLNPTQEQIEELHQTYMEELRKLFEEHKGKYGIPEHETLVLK

With `CCC1(C)NC(=O)c2cc(S(=O)(=O)Nc3ccc(OC)cc3)ccc2NC1=O` (stereo unspecified), in assay [1], the IC50 came to 0.032 µM.
On to `CCC1(C)NC(=O)c2cc(S(=O)(=O)Nc3ccccc3Cl)ccc2NC1=O` (stereo unspecified), for which the figures for the IC50 in assay [2] and in assay [1] were 0.063 µM and 0.158 µM, respectively.
With `CCC1(C)NC(=O)c2cc(S(=O)(=O)Nc3ccc(Cl)cc3)ccc2NC1=O` (stereo unspecified), the IC50 in assay [3] was 0.004 µM; in assay [2], 0.025 µM; in assay [4] it was 0.398 µM; in assay [1], 0.05 µM.
Regarding `CCC1(C)NC(=O)c2cc(S(=O)(=O)Nc3ccccc3)ccc2NC1=O` (stereo unspecified), the IC50 in assay [1] came to 0.501 µM.
In the case of `CCC1(CC)CNc2ccc(S(=O)(=O)Nc3ccc(F)cc3F)cc2C(=O)N1`, the IC50 in assay [2] was 0.0016 µM.
For `CCC1(C)C(=O)Nc2ccc(S(=O)(=O)Nc3ccc(F)cc3F)cc2C(=O)N1C` (stereo unspecified), the IC50 was 0.631 µM in assay [3] and 7.94 µM in assay [2].
Regarding `CCC1(C)NC(=O)c2cc(S(=O)(=O)Nc3ccc(Cl)cc3)ccc2N(C)C1=O` (stereo unspecified), the IC50 in assay [1] is 0.398 µM.
Turning to `CCC1(C)NC(=O)c2cc(S(=O)(=O)N(C)c3ccccc3)ccc2NC1=O` (stereo unspecified), in assay [2], the IC50 was greater than 100 µM.
Still for that read-out and setting: next, `CCC1(C)NC(=O)c2cc(NS(=O)(=O)c3ccccc3)ccc2NC1=O` (stereo unspecified): greater than 100 µM; `O=C(Nc1ccc(Cl)cc1)c1ccc2c(c1)C(=O)NC1(CCC1)C(=O)N2`: greater than 100 µM; `CC1(C)COc2ccc(S(=O)(=O)Nc3ccc(Cl)cc3)cc2C(=O)N1`: 2 µM.
Consider `CCC1(CC)CNc2ccc(S(=O)(=O)Nc3ccc(F)cc3F)cc2CN1`, for which, in assay [2], the IC50 worked out at 0.316 µM.
The same measure, in the same setting: next, `CCC1(CC)NCc2cc(S(=O)(=O)Nc3ccc(F)cc3F)ccc2NC1=O`: 0.251 µM.
Same read-out and setting: next, `CCC1(CC)NC(=O)c2cc(S(=O)(=O)Nc3ccc(F)cc3F)ccc2NC1=O`: 0.0032 µM; `O=C1NC2(CCCC2)C(=O)Nc2ccc(S(=O)(=O)Nc3ccc(Cl)cc3)cc21`: 0.05 µM; `O=C1NC2(CCC2)C(=O)Nc2ccc(S(=O)(=O)Nc3ccc(Cl)cc3)cc21`: 0.079 µM.
Still for that read-out and setting: next, `CCCC1(C)NC(=O)c2cc(S(=O)(=O)Nc3ccc(F)cc3F)ccc2NC1=O` (stereo unspecified): 0.05 µM; `CCC1NC(=O)c2cc(S(=O)(=O)Nc3ccccc3)ccc2NC1=O` (stereo unspecified): 5.01 µM.
On to `CCC1(C)NC(=O)c2cc(S(=O)(=O)Nc3cccc(Cl)c3)ccc2NC1=O` (stereo unspecified), for which, in assay [2], the IC50 worked out at 2 µM.
Same read-out and setting: as for `CCC1(C)NC(=O)c2cc(S(=O)(=O)NCc3ccccc3)ccc2NC1=O` (stereo unspecified), the figure is 7.94 µM; as for `CCC1(C)NC(=O)c2cc(S(=O)(=O)NC3CCCCC3)ccc2NC1=O` (stereo unspecified), 5.01 µM.

Usually IC50 stands for the concentration that inhibits the measured activity by half.
